These results are taken from DBAASP.

Some test systems named below: Acinetobacter baumannii; Bacillus subtilis; Candida albicans; Cryptococcus neoformans; Escherichia coli; Pseudomonas putida; Saccharomyces cerevisiae; Salmonella typhimurium; Serratia sp.; Staphylococcus aureus; Streptococcus mutans; Escherichia coli D21; Escherichia coli 117; Escherichia coli 37; Pseudomonas aeruginosa; Staphylococcus aureus 10; Staphylococcus aureus 37; Histophilus somni; Mannheimia haemolytica; Pasteurella multocida; Glaesserella parasuis.

Assay in all cases: ≥ marks a high value that may be exact or a test limit, other limits are often not marked, values filed in µg/mL are converted to µM
Assay [1] relates to Acinetobacter baumannii KCTC 2508.
Assay [2] relates to Botrytis cinerea DSM Z877.
Assay [3] deals with Fusarium oxysporum DSM Z62306.
The subject of assay [4] is Acinetobacter baumannii ATCC 19606.
For assay [5], the system named is Enterobacter cloacae ATCC 49141.
For assay [6], the system named is Enterococcus faecalis ATCC 19433.
Assay [7] relates to Escherichia coli ATCC 25922.
The subject of assay [8] is Pseudomonas aeruginosa ATCC 27853.
The subject of assay [9] is Staphylococcus aureus II ATCC 6538P.
Assay [10] has as its system Candida albicans ATCC 2002.
Assay [11] has as its system Candida albicans ATCC 90028.
Assay [12] relates to Enterococcus faecalis ATCC 29212.
For assay [13], the system named is Klebsiella pneumoniae ATCC 700603.
Assay [14] deals with Pseudomonas aeruginosa CMCCB 1010.
Assay [15] deals with Staphylococcus aureus ATCC 25923.
In assay [16] the test system is Glaesserella parasuis ATCC 19417.
For assay [17], the system named is Candida albicans ATCC 37092.
Assay [18] has as its system Staphylococcus aureus ATCC 29213.
Assay [19] deals with Escherichia coli IFO 3972.
The test system of assay [20] is Staphylococcus aureus FDA 209P.

Values after ≈ are worked out from the molar mass of the structure shown.

A word on the MIC: it is the lowest concentration that inhibits growth of the organism. Read a high MIC as a need for much substance. With `CC[C@H](C)[C@H](NC(=O)CNC(=O)[C@H](CC(C)C)NC(=O)[C@H](CCCN=C(N)N)NC(=O)[C@H](CCCCN)NC(=O)[C@H](Cc1ccccc1)NC(=O)[C@@H](NC(=O)[C@H](CCCCN)NC(=O)[C@H](CCCCN)NC(=O)[C@H](C)N)C(C)C)C(=O)NCC(=O)N[C@@H](CCCCN)C(=O)N[C@@H](Cc1ccccc1)C(=O)N[C@@H](CC(C)C)C(=O)N[C@@H](Cc1cnc[nH]1)C(=O)N[C@@H](CO)C(=O)N[C@@H](C)C(=O)N[C@@H](CCCCN)C(=O)N[C@@H](CCCCN)C(=O)N[C@@H](Cc1ccccc1)C(N)=O` [AKKVFKRLGIGKFLHSAKKF], the MIC (in [1]; against Acinetobacter baumannii) was 6.25 µM (≈ 14.4 µg/mL) throughout.
Consider `CSCC[C@H](NC(=O)[C@@H](NC(=O)[C@@H](NC(=O)[C@H](CCCCN)NC(=O)[C@H](C)N)C(C)C)[C@@H](C)O)C(=O)N[C@H](C(=O)N[C@@H](CS)C(=O)N[C@@H](CO)C(=O)N[C@@H](C)C(=O)N[C@@H](CO)C(=O)O)[C@@H](C)O` [AKVTMTCSAS], for which the results for the minimal inhibitory concentration (MIC) in assay [2] and in assay [3] were not below 120 µM and not below 100 µM, respectively.
Turning to `CC[C@H](C)[C@H](NC(=O)[C@H](CO)NC(=O)[C@H](CCCCN)NC(=O)[C@H](Cc1ccccc1)NC(=O)[C@H](CCCCN)NC(=O)[C@H](CCCCN)NC(=O)[C@H](CC(C)C)NC(=O)[C@@H]1CCCN1C(=O)[C@@H](NC(=O)[C@H](CCCCN)NC(=O)[C@@H](NC(=O)[C@@H](NC(=O)[C@H](C)N)C(C)C)C(C)C)C(C)C)C(=O)N[C@@H](CCCN=C(N)N)C(=O)N[C@@H](CCC(=O)O)C(=O)O` [AVVKVPLKKFKSIRE], the MIC against Bacillus subtilis was 11.5 µM (≈ 20 µg/mL); in the assay on Candida albicans, 57.4 µM (≈ 100 µg/mL); in the assay on Cryptococcus neoformans, 23 µM (≈ 40 µg/mL); against Escherichia coli, 28.7 µM (≈ 50 µg/mL); in the assay with Pseudomonas putida it was not below 57.4 µM; against Saccharomyces cerevisiae, 5.74 µM (≈ 10 µg/mL). Besides, the minimal inhibitory concentration (MIC) against Salmonella typhimurium turned out to be 17.2 µM (≈ 30 µg/mL); in the assay on Serratia sp. it was 28.7 µM (≈ 50 µg/mL); with Staphylococcus aureus, 28.7 µM (≈ 50 µg/mL); against Streptococcus mutans, 17.2 µM (≈ 30 µg/mL).
Regarding `CC(C)C[C@H](NC(=O)[C@H](Cc1cnc[nH]1)NC(=O)[C@H](Cc1cnc[nH]1)NC(=O)[C@H](CC(C)C)NC(=O)[C@H](CC(C)C)NC(=O)[C@H](Cc1cnc[nH]1)NC(=O)[C@H](Cc1cnc[nH]1)NC(=O)[C@H](CC(C)C)NC(=O)[C@H](CC(C)C)NC(=O)[C@H](Cc1cnc[nH]1)NC(=O)[C@H](Cc1cnc[nH]1)NC(=O)[C@H](CC(C)C)NC(=O)[C@H](C)NC(=O)[C@H](CC(=O)O)NC(=O)[C@@H](N)CC(=O)O)C(=O)O` [DDALHHLLHHLLHHL], the minimal inhibitory concentration (MIC) in assay [4] is more than 100 µM; in assay [5], not below 100 µM; in assay [6], not below 100 µM; in assay [7], more than 100 µM; against Escherichia coli D21 it was not below 100 µM; in [8] it was 100 µM (≈ 182 µg/mL). For the same molecule, the MIC in assay [9] is not below 100 µM.
Consider `CC[C@H](C)[C@H](N)C(=O)N[C@@H](CC(N)=O)C(=O)N[C@@H](CC(C)C)C(=O)N[C@@H](CCCCN)C(=O)N[C@@H](C)C(=O)N[C@H](C(=O)N[C@@H](C)C(=O)N[C@@H](C)C(=O)N[C@@H](CC(C)C)C(=O)N[C@@H](C)C(=O)N[C@@H](CCCN=C(N)N)C(=O)N[C@@H](CC(N)=O)C(=O)N[C@@H](Cc1ccc(O)cc1)C(=O)O)[C@@H](C)CC` [INLKAIAALARNY], for which the minimum inhibitory concentration (MIC) in assay [10] was not below 55.9 µM; in [11] it was 14 µM (≈ 20 µg/mL); in [12] it was 3.49 µM (≈ 5 µg/mL); in the assay with Escherichia coli 117, 28 µM (≈ 40 µg/mL); against Escherichia coli 37 it was not below 55.9 µM; in assay [13], 55.9 µM (≈ 80 µg/mL). The minimum inhibitory concentration (MIC) in [8] is 55.9 µM (≈ 80 µg/mL); in [14], not below 55.9 µM; with Pseudomonas aeruginosa it was 6.99 µM (≈ 10 µg/mL); in the assay with Staphylococcus aureus 10, 28 µM (≈ 40 µg/mL); in the assay on Staphylococcus aureus 37, 6.99 µM (≈ 10 µg/mL); in [15], 6.99 µM (≈ 10 µg/mL).
As for `CC[C@H](C)[C@@H]1NC(=O)CNC(=O)[C@H](CCCCN)NC(=O)[C@H](CC(N)=O)NC(=O)[C@H](CCCN=C(N)N)NC(=O)[C@H](C(C)C)NC(=O)[C@@H](NC(=O)[C@H](CO)NC(=O)[C@@H](NC(=O)[C@@H]2CCCN2C(=O)[C@@H](N)CC(N)=O)C(C)C)CSSC[C@@H]2NC(=O)[C@H](CCCCN)NC(=O)[C@H](C(C)C)NC(=O)[C@H](C)NC(=O)[C@H](CCCN=C(N)N)NC(=O)CNC(=O)[C@H](C(C)C)NC(=O)[C@@H]3CSSC[C@H](NC1=O)C(=O)N[C@@H](C(C)C)C(=O)N1CCC[C@H]1C(=O)N[C@@H]([C@@H](C)CC)C(=O)N[C@@H](CCCN=C(N)N)C(=O)N[C@@H](CSSC[C@@H](C(=O)N[C@@H](CCCN=C(N)N)C(=O)N[C@@H](CCCCN)C(=O)N[C@@H](CCCCN)C(=O)O)NC2=O)C(=O)N1CCC[C@H]1C(=O)NCC(=O)N[C@@H](CC(N)=O)C(=O)N[C@@H](CCSC)C(=O)N[C@@H](CCCCN)C(=O)N[C@@H](CCC(N)=O)C(=O)N[C@@H]([C@@H](C)CC)C(=O)NCC(=O)N[C@@H]([C@@H](C)O)C(=O)N3` [NPVSCVRNKGICVPIRCPGNMKQIGTCVGRAVKCCRKK], the minimal inhibitory concentration (MIC) came out at 1.14 µM (≈ 4.69 µg/mL) in the assay on Histophilus somni, 0.753 µM (≈ 3.1 µg/mL) against Mannheimia haemolytica and 0.558 µM (≈ 2.3 µg/mL) in the assay with Pasteurella multocida.
With `C[C@H](NC(=O)[C@H](Cc1ccccc1)NC(=O)[C@H](CS)NC(=O)[C@H](Cc1c[nH]c2ccccc12)NC(=O)[C@H](CCCN=C(N)N)NC(=O)[C@@H](N)CC(N)=O)C(=O)NCC(=O)N[C@@H](CC(=O)O)C(=O)N[C@@H](CC(=O)O)C(=O)O` [NRWCFAGDD], the minimal inhibitory concentration (MIC) in assay [16] came out at 18.5 µM (≈ 20 µg/mL); against Glaesserella parasuis it was 13.1 µM (≈ 14.1 µg/mL).
Consider `CC(C)C[C@H](NC(=O)[C@@H]1CCCN1C(=O)[C@H](CCCN=C(N)N)NC(=O)[C@@H]1CCCN1)C(=O)N1CCC[C@H]1C(=O)N[C@@H](Cc1ccccc1)C(=O)N1CCC[C@H]1C(=O)N[C@@H](CCCN=C(N)N)C(=O)N1CCC[C@H]1C(=O)NCC(=O)O` [PRPLPFPRPG], for which the minimum inhibitory concentration (MIC) in assay [17] was not below 500 µM; in assay [7], more than 500 µM; in assay [18] it was more than 500 µM.
In the case of `CC(C)C[C@H](NC(=O)[C@H](Cc1c[nH]c2ccccc12)NC(=O)[C@@H](NC(=O)[C@H](Cc1c[nH]c2ccccc12)NC(=O)[C@H](Cc1cnc[nH]1)NC(=O)[C@@H](N)Cc1c[nH]c2ccccc12)[C@@H](C)O)C(=O)O` [WHWTWL], the MIC in [19] and in assay [20] was not below 500 µM throughout.
